Laboratory results from patent publication US20240132473A1, “SULFOXIMIDE SUBSTITUTED INDAZOLE IRAK4 KINASE INHIBITOR, PREPARATION METHOD THEREOF AND USE THEREOF” (Shanghai Xunhe Pharmaceutical Technology Co. Ltd., priority 2021, published 2024).

Tests used:
IRAK4 kinase = IRAK4 kinase (Homo sapiens (Human), UniProt Q9NWZ3); assay: IRAK4 kinase inhibitory activity assay (mobility shift assay, Km ATP); format: biochemical; settings: MSA, ATP 37 μM (Km ATP)
Description: The inhibitory activity (IC50) of the compound on IRAK4 kinase under Km ATP was detected by mobility shift assay (MSA). Ten drug concentration gradients were set (initial concentration 1 μM, 3-fold dilution, 2 duplicate wells per concentration). […] After incubation at 28° C. for a period of time, 10 μL of termination buffer was added to terminate the reaction. The conversion rate data was read with Caliper, and then the conversion rate was converted into inhibition rate data. According to the inhibition rate data of each concentration, the IC50 of half inhibitory concentration was calculated by Logit method (Table 3).

[1] = system: TNF-α secretion in THP-1 cells; assay: Inhibition of LPS-stimulated TNF-α secretion in THP-1 cells (ELISA); format: cell-based; settings: Homo sapiens, LPS 1 μg/mL, 4.5 hours
Description: TNF-α is a key cytokine involved in the inflammatory process of the listed autoimmune disease, such as rheumatoid arthritis, psoriatic arthritis, ankylosing spondylitis, psoriasis, Crohn's disease, ulcerative colitis, etc. In this test, TNF-α secretion was triggered by incubation with bacterial lipopolysaccharides (LPS). […] The 96-well plate was rotated at 2000 rpm for 5 minutes, and then 50 μL of supernatant was taken. The content of TNF-α in the supernatant was determined by human ELISA kit, and IC50 value of the compound was calculated by XL-Fit (table 4).

[2] = Pharmacokinetic test in SD rats, single intragastric administration; settings: rat, po; for Cmax / AUC(0-t) / Tmax: 25 mg/kg; for half-life: SD
Description: SD rats were used as the test animals.
Standard curve and preparation and processing of quality control samples:
Stock solution was diluted with 50% acetonitrile-water to obtain standard working solutions of 0.04, 0.10, 0.20, 0.40, 1.00, 2.00, 4.00 μg/mL, and quality control working solutions of 0.10, 1.00, 3.00 μg/mL. […] 200 μL of acetonitrile (containing 5 ng/mL of the internal standard loratadine) was added. After the vortex oscillation for 3 minutes, the solutions were centrifuged at 15000 rpm at 4° C. for 15 minutes. 100 μL of the supernatant was taken for LC-MS/MS analysis. WinNonlin ® 8.0 was used to calculate the experimental results.

in vivo = settings: ICR, mouse, po
Description: On the day of administration, observations were made approximately 0.5, 1, 2, 4, and 6 hours after the first administration. During day 2 to day 6 of the observation period, observations were made twice a day, once in the morning and once in the afternoon.
Observations included but not limited to: general conditions, behavioral activities, gait and posture, eyes, mouth, nose, gastrointestinal tract, skin hair and urogenital tract.
Weight data were expressed as mean ±standard deviation. Levene's test and one-way analysis of variance were used for comparison between groups. If there was a difference, Dunnet t test was then used.
The maximum tolerated dose refers to the dose administered when the animal was dying.

Sequence of IRAK4 kinase (Q9NWZ3 whole entry): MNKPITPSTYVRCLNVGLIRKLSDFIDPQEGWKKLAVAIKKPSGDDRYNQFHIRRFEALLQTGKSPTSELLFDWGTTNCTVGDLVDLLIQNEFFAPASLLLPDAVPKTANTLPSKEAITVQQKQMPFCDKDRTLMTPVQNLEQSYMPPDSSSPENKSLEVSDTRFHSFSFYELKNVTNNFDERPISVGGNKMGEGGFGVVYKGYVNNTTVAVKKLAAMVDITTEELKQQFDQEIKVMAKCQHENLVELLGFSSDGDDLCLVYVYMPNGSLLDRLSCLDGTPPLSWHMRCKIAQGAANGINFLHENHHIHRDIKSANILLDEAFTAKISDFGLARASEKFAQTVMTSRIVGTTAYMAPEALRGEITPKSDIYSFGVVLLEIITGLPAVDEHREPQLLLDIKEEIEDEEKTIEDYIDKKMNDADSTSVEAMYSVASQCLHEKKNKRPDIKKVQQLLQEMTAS

Row | SMILES | IC50 (IRAK4 kinase) [nM] | IC50 [1] [nM] | Cmax ([2]; in vivo) [ng/mL] | half-life ([2]; in vivo) [h] | AUC(0-t) ([2]; plasma) [ng·h/mL] | Cmax ([2]; plasma) [ng/mL] | Tmax ([2]; plasma) [h] | MTD at 6 days (in vivo) [mg/kg]
1 | CC(C)(O)CCn1cc2cc(NC(=O)c3cccc(C(F)(F)F)n3)c(C(C)(C)O)cc2n1 [BAY-1830839, reference compound] | – | – | 223 | – | – | – | – | –
2 | CC(C)(O)c1cc2nn(CCS(=N)(=O)c3ccncc3)cc2cc1NC(=O)c1cccc(C(F)(F)F)n1 (stereo not shown) [Compound I-6] | 0.2 | 0.6 | – | – | – | – | – | –
3 | N=S(=O)(CCn1cc2cc(NC(=O)c3cccc(C(F)(F)F)n3)c(N3CCC(O)C3)cc2n1)c1ccncc1 (stereo not shown) [Compound I-8] | 0.6 | 0.9 | – | – | – | – | – | –
4 | N=S(=O)(CCn1cc2cc(NC(=O)c3cccc(C(F)(F)F)n3)c(N3CCC(O)C3)cc2n1)c1ccccc1 (stereo not shown) [Compound I-4] | 0.3 | 1.3 | – | 4.7 | 8530 | 1500 | 6 | –
5 | N=S(=O)(CCn1cc2cc(NC(=O)c3cccc(C(F)(F)F)n3)c(N3CCOCC3)cc2n1)c1ccccc1 (stereo not shown) [Compound I-3] | 0.6 | 0.6 | – | – | – | – | – | –
6 | N=S(=O)(CCn1cc2cc(NC(=O)c3cccc(C(F)(F)F)n3)c(N3CCOCC3)cc2n1)c1ccncc1 (stereo not shown) [Compound I-7] | 0.5 | 1.2 | – | 5 | 8630 | 1500 | 5 | > 2000
7 | N=S(=O)(CCn1cc2cc(NC(=O)c3cnn4cccnc34)c(N3CCC(O)C3)cc2n1)c1ccccn1 (stereo not shown) [Compound I-24] | 0.8 | 0.8 | – | 5.5 | 8900 | 1420 | 6.2 | > 2000
8 | Cc1cc(-c2nc(C(=O)Nc3cc4cn(CCS(=N)(=O)c5ccncc5)nc4cc3C(C)(C)O)co2)ccn1 (stereo not shown) [Compound I-16] | 0.5 | 0.9 | – | 6.3 | 9230 | 1360 | 6 | > 2000

Further lines, with some results ahead:

Row | IC50 (IRAK4 kinase) [nM] | IC50 [1] [nM] | Cmax ([2]; in vivo) [ng/mL] | half-life ([2]; in vivo) [h] | AUC(0-t) ([2]; plasma) [ng·h/mL] | Cmax ([2]; plasma) [ng/mL] | Tmax ([2]; plasma) [h] | SMILES | MTD at 6 days (in vivo) [mg/kg]
9 | 0.5 | 1.2 | – | – | – | – | – | CN=S(=O)(CCn1cc2cc(NC(=O)c3cccc(C(F)(F)F)n3)c(OC)cc2n1)c1ccccc1 (stereo not shown) [Compound I-25] | –
10 | – | 125 | – | 1.4 | 734 | 245 | 1.4 | COc1cc2nn(CCS(C)(=N)=O)cc2cc1NC(=O)c1cccc(C(F)(F)F)n1 (stereo not shown) [MY-004-103, reference compound] | –
11 | 0.5 | 1.5 | – | 5.4 | 8490 | 1490 | 5.6 | COc1cc2nn(CCS(=N)(=O)c3ncco3)cc2cc1NC(=O)c1cccc(C(F)(F)F)n1 (stereo not shown) [Compound I-36] | –
12 | 0.4 | 1.1 | – | – | – | – | – | Cc1cc2nn(CCS(=N)(=O)c3ccccc3)cc2cc1NC(=O)c1cccc(C(F)(F)F)n1 (stereo not shown) [Compound I-13] | –
13 | 0.5 | 1.2 | – | 5.4 | 8200 | 1430 | 5.8 | Cc1cc(-c2nc(C(=O)Nc3cc4cn(CCS(=N)(=O)c5ccncc5)nc4cc3N3CCOCC3)co2)ccn1 (stereo not shown) [Compound I-17] | –
14 | 0.4 | 1.1 | – | – | – | – | – | N=S(=O)(CCn1cc2cc(NC(=O)c3cnn4cccnc34)c(N3CCOCC3)cc2n1)c1ccnc2ccccc12 (stereo not shown) [Compound I-23] | –
15 | 0.7 | 0.7 | – | – | – | – | – | COc1cc2nn(CCS(=N)(=O)c3ccccc3)cc2cc1NC(=O)c1coc(-c2ccnc(C)c2)n1 (stereo not shown) [Compound I-28] | –
16 | 0.2 | 1 | – | 4.8 | 8520 | 1420 | 5.5 | COc1cc2nn(CCS(=N)(=O)c3ccnc4ccccc34)cc2cc1NC(=O)c1cccc(C(F)(F)F)n1 (stereo not shown) [Compound I-9] | –
17 | 0.5 | 1 | – | – | – | – | – | Cc1cc(-c2nc(C(=O)Nc3cc4cn(CCS(=N)(=O)c5ncccn5)nc4cc3C(C)(C)O)co2)ccn1 (stereo not shown) [Compound I-32] | –
